According to patent US20210309657A1, “TRICYCLIC COMPOUNDS FOR THE TREATMENT AND PROPHYLAXIS OF BACTERIAL INFECTION” (Hoffmann-La Roche Inc., priority 2018, published 2021):
In brackets after ≈: the same amount, converted by molar mass.

Legend:
A. baumannii (ATCC17978) = assay: 50% growth inhibitory concentration (IC50) determination assay, A. baumannii; assay type: cell-based; details: Acinetobacter baumannii, growth inhibition, Iso-Sensitest broth, OD 600 nm over 16h, <0.098 = the detection limit
Procedure: (§1) The in vitro antimicrobial activity of the compounds against S. aureus (ATCC29213), K. pneumoniae (ATCC10031), and A. baumannii (ATCC17978), was determined according to the following procedure: The assay used a 10-points Iso-Sensitest broth medium to measure quantitatively the in vitro activity of the compounds against S. aureus ATCC29213, K. pneumoniae ATCC 10031, and A. baumannii ATCC17978. Stock compounds in DMSO were serially two-fold diluted (range from 50 to 0.097 μM final concentration) in 384 wells microtiter plates and inoculated with 49 μL the bacterial suspension in Iso-Sensitest broth medium to have a final cell concentration of ˜5×10^5 CFU/mL in a final volume/well of 50 μL/well. Microtiter plates were incubated at 35±2° C. Bacterial cell growth was determined with the measurement of optical density at λ=600 nm each 20 minutes over a time course of 16h. Growth inhibition was calculated during the logarithmic growth of the bacterial cells with determination of the concentration inhibiting 50% (IC50) of the growth. Compounds of the present invention were tested for their concentration inhibiting 50% (IC50). The data of IC50 over S. aureus (ATCC29213), K. pneumoniae (ATCC10031), and A. baumannii (ATCC17978) are illustrated in Table 4.

[1] = Lyophilisation solubility assay (LYSA); assay type: physicochemical; details: aqueous buffer, thermodynamic from solid; 0.05 M phosphate buffer, pH 6.5; HPLC-UV; <1.0 = the detection limit; read-out: Lysa
Procedure: The solubility of compounds of present invention was assessed by LYSA assay. Samples were prepared in duplicate from 10 mM DMSO stock solutions ([…]) diluted in 30 μL pure DMSO. After evaporation of DMSO with a centrifugal vacuum evaporator, the residue was dissolved in 0.05 M phosphate buffer (150 μL, pH 6.5), which was stirred for one hour and shook for two hours. After one night, the solution was filtered using a microtiter filter plate. Then the filtrate and its 1/10 dilution were analyzed by HPLC-UV. In addition, a four-point calibration curve was prepared from the 10 mM stock solutions and used for the solubility determination of the compounds.

[2] = tested on: K. pneumoniae (ATCC10031); assay: 50% growth inhibitory concentration (IC50) determination assay, K. pneumoniae; assay type: cell-based; details: Klebsiella pneumoniae, growth inhibition, Iso-Sensitest broth, OD 600 nm over 16h, <0.098 = the detection limit
Procedure: as §1

S. aureus (ATCC29213) = assay: 50% growth inhibitory concentration (IC50) determination assay, S. aureus; assay type: cell-based; details: Staphylococcus aureus, growth inhibition, Iso-Sensitest broth, OD 600 nm over 16h, <0.098 = the detection limit
Procedure: as §1

SMILES | IC50 (A. baumannii (ATCC17978)) [µM] | solubility thermodynamic [1] [µg/mL] | IC50 [2] [µM] | IC50 (S. aureus (ATCC29213)) [µM]
CNc1cc(F)cc2c1[nH]c1ncc(-c3cncc(C#N)c3)c(N3CCC4(C[C@H]4N)C3)c12 (stereo in doubt) [Example 1.16, 5-[6-Fluoro-8-(methylamino)-4-[cis-2-amino-5-azaspiro[2.4]heptan-5-yl]-9H-pyrido[2,3-b]indol-3-yl]pyridine-3-carbonitrile] | 0.104 | 32 (≈ 74.9 µM) | < 0.098 | 0.867
CNc1cc(F)c(F)c2c1[nH]c1ncc(-c3cnc(OC)nc3)c(N3CCC4(C[C@H]4N)C3)c12 (stereo in doubt) [Example 1.34, 4-[Cis-2-amino-5-azaspiro[2.4]heptan-5-yl]-5,6-difluoro-3-(2-methoxypyrimidin-5-yl)-N-methyl-9H-pyrido[2,3-b]indol-8-amine] | 0.157 | 93 (≈ 206 µM) | < 0.098 | 0.603
CNc1cc(F)c(F)c2c1[nH]c1ncc(-c3cnc(OC)nc3)c(N3CCC4(C[C@@H]4N)C3)c12 (stereo in doubt) [Example 1.35, 4-[Trans-2-amino-5-azaspiro[2.4]heptan-5-yl]-5,6-difluoro-3-(2-methoxypyrimidin-5-yl)-N-methyl-9H-pyrido[2,3-b]indol-8-amine] | < 0.098 | 90 (≈ 199 µM) | < 0.098 | 0.184
CCNc1cc(F)c(F)c2c1[nH]c1ncc(-c3cncc(C#N)c3)c(N3CC[C@@H](N)C3)c12 [Example 1.04, 5-[4-[(3R)-3-Aminopyrrolidin-1-yl]-8-(ethylamino)-5,6-difluoro-9H-pyrido[2,3-b]indol-3-yl]pyridine-3-carbonitrile] | 0.212 | 145 (≈ 335 µM) | < 0.098 | 0.38
CCNc1cc(Cl)cc2c1[nH]c1ncc(-c3cncc(C#N)c3)c(N3CC[C@@H](N)C3)c12 [Example 1.05, 5-[4-[(3R)-3-Aminopyrrolidin-1-yl]-6-chloro-8-(ethylamino)-9H-pyrido[2,3-b]indol-3-yl]pyridine-3-carbonitrile] | < 0.098 | 28 (≈ 64.8 µM) | < 0.098 | 1.79
CCNc1cc(F)c(F)c2c1[nH]c1ncc(-c3cncc(C#N)c3)c(N3CCC(CN)C3)c12 (stereo not shown) [Example 1.07, 5-[4-[3-(Aminomethyl)pyrrolidin-1-yl]-8-(ethylamino)-5,6-difluoro-9H-pyrido[2,3-b]indol-3-yl]pyridine-3-carbonitrile] | 0.11 | 39 (≈ 87.2 µM) | < 0.098 | 1.09
CCNc1cc(F)c(F)c2c1[nH]c1ncc(-c3cnc(OC)nc3)c(N3CCC(CN)C3)c12 (stereo not shown) [Example 1.08, 4-[3-(Aminomethyl)pyrrolidin-1-yl]-N-ethyl-5,6-difluoro-3-(2-methoxypyrimidin-5-yl)-9H-pyrido[2,3-b]indol-8-amine] | 0.243 | 83 (≈ 183 µM) | < 0.098 | 0.789
CCNc1cc(F)c(F)c2c1[nH]c1ncc(-c3cnc4ccnn4c3)c(N3CCC(N)C3)c12 (stereo not shown) [Example 1.09, 4-(3-Aminopyrrolidin-1-yl)-N-ethyl-5,6-difluoro-3-pyrazolo[1,5-a]pyrimidin-6-yl-9H-pyrido[2,3-b]indol-8-amine] | 0.147 | 190 (≈ 424 µM) | < 0.098 | 0.238
CNc1cc(F)c(F)c2c1[nH]c1ncc(-c3cncc(C#N)c3)c(N3CCC(CN)C3)c12 (stereo not shown) [Example 1.13, 5-[4-[3-(Aminomethyl)pyrrolidin-1-yl]-5,6-difluoro-8-(methylamino)-9H-pyrido[2,3-b]indol-3-yl]pyridine-3-carbonitrile] | 0.764 | 46 (≈ 106 µM) | < 0.098 | 1.5
CCNc1cc(F)cc2c1[nH]c1ncc(-c3cncc(C#N)c3)c(N3CCCC(CN)C3)c12 (stereo not shown) [Example 1.14, 5-[4-[3-(Aminomethyl)-1-piperidyl]-8-(ethylamino)-6-fluoro-9H-pyrido[2,3-b]indol-3-yl]pyridine-3-carbonitrile] | < 0.098 | 10 (≈ 22.5 µM) | < 0.098 | 1.21
CNc1cc(F)c(F)c2c1[nH]c1ncc(-c3cncc(C#N)c3)c(N3CC[C@@H](N)C3)c12 [Example 1.15, 5-[4-[(3R)-3-Aminopyrrolidin-1-yl]-5,6-difluoro-8-(methylamino)-9H-pyrido[2,3-b]indol-3-yl]pyridine-3-carbonitrile] | 0.672 | 169 (≈ 403 µM) | < 0.098 | 0.526
CCNc1cc(F)c(F)c2c1[nH]c1ncc(-c3cnc(OC)nc3)c(N3CC[C@@H](N)C3)c12 [Example 1.18, 4-[(3R)-3-Aminopyrrolidin-1-yl]-N-ethyl-5,6-difluoro-3-(2-methoxypyrimidin-5-yl)-9H-pyrido[2,3-b]indol-8-amine] | 0.249 | 195 (≈ 444 µM) | < 0.098 | 0.567
CNc1cc(F)c(F)c2c1[nH]c1ncc(-c3cnc(OC)nc3)c(N3CCC(CN)C3)c12 (stereo not shown) [Example 1.19, 4-[3-(Aminomethyl)pyrrolidin-1-yl]-5,6-difluoro-3-(2-methoxypyrimidin-5-yl)-N-methyl-9H-pyrido[2,3-b]indol-8-amine] | 0.683 | 31 (≈ 70.5 µM) | < 0.098 | 0.712
CCNc1cc(C(F)(F)F)cc2c1[nH]c1ncc(-c3cncc(C#N)c3)c(N3CCC(N)C3)c12 (stereo not shown) [Example 1.20, 5-[4-(3-Aminopyrrolidin-1-yl)-8-(ethylamino)-6-(trifluoromethyl)-9H-pyrido[2,3-b]indol-3-yl]pyridine-3-carbonitrile] | < 0.098 | 124 (≈ 266 µM) | < 0.098 | 1.27
CNc1cc(F)c(F)c2c1[nH]c1ncc(-c3cncc(C#N)c3)c(N3CCC(F)(CN)C3)c12 (stereo not shown) [Example 1.22, 5-[4-[3-(Aminomethyl)-3-fluoro-pyrrolidin-1-yl]-5,6-difluoro-8-(methylamino)-9H-pyrido[2,3-b]indol-3-yl]pyridine-3-carbonitrile] | 0.112 | 11 (≈ 24.4 µM) | < 0.098 | 0.224
CNc1cc(F)c(F)c2c1[nH]c1ncc(-c3cnc(OC)nc3)c(N3CC4CC4(CN)C3)c12 (stereo not shown) [Example 1.27, 4-[1-(Aminomethyl)-3-azabicyclo[3.1.0]hexan-3-yl]-5,6-difluoro-3-(2-methoxypyrimidin-5-yl)-N-methyl-9H-pyrido[2,3-b]indol-8-amine] | 0.34 | 74 (≈ 164 µM) | < 0.098 | 0.522
CCNc1cc(F)cc2c1[nH]c1ncc(-c3cnc(OC)nc3)c(N3CCC[C@@H](CN)C3)c12 [Example 1.52, (S)-4-(3-(Aminomethyl)piperidin-1-yl)-N-ethyl-6-fluoro-3-(2-methoxypyrimidin-5-yl)-9H-pyrido[2,3-b]indol-8-amine] | < 0.098 | – | < 0.098 | 0.993
CNc1cc(F)c(F)c2c1[nH]c1ncc(-c3cnc4ccnn4c3)c(N(C)C)c12 [Example 1.62, 5,6-Difluoro-N4,N4,N8-trimethyl-3-pyrazolo[1,5-a]pyrimidin-6-yl-9H-pyrido[2,3-b]indole-4,8-diamine] | < 0.098 | – | 0.238 | 1.38
